PubChem BioAssay (NCI)
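Cultured in 96-well plates, cells were exposed to test compound for 48 hours across five concentrations. Abbreviation: GI50, concentration required for 50% inhibition of growth. TGI marks complete inhibition of growth.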

Experiments:
Test in all cases: DTP human tumour cell line panel, 48 h
[1] = test system: M14 melanoma
[2] = test system: LXFL 529 NSCLC
[3] = test system: NCI-H522 lung
[4] = test system: NCI-H226 lung
[5] = test system: MOLT-4 leukemia
[6] = test system: UO-31 renal
[7] = test system: XF 498 CNS
[8] = test system: SNB-19 CNS
[9] = test system: HOP-18 NSCLC
[10] = test system: OVCAR-8 ovarian
[11] = test system: COLO 205 colon
[12] = test system: HT29 colon
[13] = test system: SK-MEL-2 melanoma
[14] = test system: TK-10 renal
[15] = test system: KM20L2 colon
[16] = test system: UACC-257 melanoma
[17] = test system: A549 NSCLC
[18] = test system: OVCAR-3 ovarian
[19] = test system: SR leukemia
[20] = test system: SK-MEL-28 melanoma
[21] = test system: SF-539 CNS
[22] = test system: KM12 colon
[23] = test system: NCI-H460 lung
[24] = test system: OVCAR-4 ovarian
[25] = test system: DLD-1 colon
[26] = test system: HCT-116 colon
[27] = test system: HCC-2998 colon
[28] = test system: HCT-15 colon
[29] = test system: OVCAR-5 ovarian
[30] = test system: RPMI-8226 leukemia
[31] = test system: MALME-3M melanoma
[32] = test system: SF-295 CNS
[33] = test system: SN12C renal
[34] = test system: SK-MEL-5 melanoma
[35] = test system: SW-620 colon
[36] = test system: RXF-631 renal
[37] = test system: SNB-75 CNS
[38] = test system: 786-0 renal
[39] = test system: DMS 273 small cell lung
[40] = test system: CAKI-1 renal
[41] = test system: M19-MEL melanoma
[42] = test system: ACHN renal
[43] = test system: SNB-78 CNS
[44] = test system: U251 CNS
[45] = test system: K-562 leukemia
[46] = test system: EKVX NSCLC
[47] = test system: DMS 114 small cell lung
[48] = test system: NCI-H23 lung
[49] = test system: HL-60(TB) leukemia
[50] = test system: UACC-62 melanoma
[51] = test system: SK-OV-3 ovarian
[52] = test system: HOP-62 NSCLC
[53] = test system: IGROV1 ovarian
[54] = test system: LOX IMVI melanoma
[55] = test system: CCRF-CEM leukemia
[56] = test system: HOP-92 NSCLC
[57] = test system: RXF 393 renal
[58] = test system: SF-268 CNS

CC(C)(C)[SiH]12(OC(C(F)(F)F)(C(F)(F)F)c3ccccc31)OC(C(F)(F)F)(C(F)(F)F)c1ccccc12
TGI [1]: 12.7 µM | TGI [2]: 16.2 µM | TGI [3]: 17.7 µM | TGI [4]: 5.05 µM | TGI [5]: 5.41 µM | TGI [6]: 19.2 µM | TGI [7]: 24.3 µM | TGI [8]: 13.1 µM | TGI [9]: 9.83 µM | TGI [10]: 28.9 µM | TGI [11]: 21 µM | TGI [12]: 13.2 µM | TGI [13]: 31.1 µM | TGI [14]: 26.3 µM | TGI [15]: 7.83 µM | TGI [16]: 27.7 µM | TGI [17]: 19.9 µM | TGI [18]: 16.6 µM | TGI [19]: 6.38 µM | TGI [20]: 28.4 µM | TGI [21]: 6.54 µM | TGI [22]: 15.3 µM | TGI [23]: 6.68 µM | TGI [24]: 19.7 µM | TGI [25]: 13.3 µM | TGI [26]: 13 µM | TGI [27]: 12.9 µM | TGI [28]: 4.77 µM | TGI [29]: 6.25 µM | TGI [30]: > 100 µM | TGI [31]: 31 µM | TGI [32]: 8.41 µM | TGI [33]: 19.4 µM | TGI [34]: 22.1 µM | TGI [35]: 18.1 µM | TGI [36]: 10.7 µM | TGI [37]: 7.18 µM | TGI [38]: 11.1 µM | TGI [39]: 24.3 µM | TGI [40]: 25.3 µM | TGI [41]: 26.4 µM | TGI [42]: 21.7 µM | TGI [43]: 25.3 µM | TGI [44]: 6.19 µM | TGI [45]: 18.2 µM | TGI [46]: 14.1 µM | TGI [47]: 22.3 µM | TGI [48]: 9.64 µM

O=C(O)CNc1cc(-c2ccccc2)nc(NCC(=O)O)n1
TGI [1]: > 100 µM | TGI [2]: > 100 µM | TGI [3]: > 100 µM | TGI [4]: > 100 µM | TGI [49]: > 100 µM | TGI [5]: > 100 µM | TGI [6]: > 100 µM | TGI [7]: > 100 µM | TGI [8]: > 100 µM | TGI [9]: > 100 µM | TGI [10]: > 100 µM | TGI [11]: > 100 µM | TGI [12]: > 100 µM | TGI [13]: > 100 µM | TGI [14]: > 100 µM | TGI [15]: > 100 µM | TGI [16]: > 100 µM | TGI [17]: > 100 µM | TGI [18]: > 100 µM | TGI [19]: > 100 µM | TGI [20]: > 100 µM | TGI [21]: > 100 µM | TGI [22]: > 100 µM | TGI [23]: > 100 µM | TGI [24]: > 100 µM | TGI [50]: > 100 µM | TGI [25]: > 100 µM | TGI [26]: > 100 µM | TGI [27]: > 100 µM | TGI [28]: > 100 µM | TGI [29]: > 100 µM | TGI [30]: > 100 µM | TGI [31]: > 100 µM | TGI [32]: > 100 µM | TGI [51]: > 100 µM | TGI [52]: > 100 µM | TGI [33]: > 100 µM | TGI [34]: > 100 µM | TGI [35]: > 100 µM | TGI [53]: > 100 µM | TGI [36]: > 100 µM | TGI [37]: > 100 µM | TGI [54]: > 100 µM | TGI [38]: > 100 µM | TGI [39]: > 100 µM | TGI [40]: > 100 µM | TGI [41]: > 100 µM | TGI [55]: > 100 µM | TGI [42]: > 100 µM | TGI [43]: > 100 µM | TGI [44]: > 100 µM | TGI [45]: > 100 µM | TGI [46]: > 100 µM | TGI [56]: > 100 µM | TGI [47]: > 100 µM | TGI [48]: > 100 µM

CC(O)C(N=Cc1ccccc1[O-])C(=O)[O-].CC(O)C(N=Cc1ccccc1[O-])C(=O)[O-].[Co+2] (stereo not drawn)
GI50 [1]: > 100 µM | TGI [1]: > 100 µM | GI50 [3]: > 100 µM | TGI [3]: > 100 µM | GI50 [4]: 28.6 µM | TGI [4]: > 100 µM | GI50 [49]: 39.1 µM | TGI [49]: > 100 µM | GI50 [5]: 19 µM | TGI [5]: > 100 µM | GI50 [57]: > 100 µM | TGI [57]: > 100 µM | GI50 [6]: 76.5 µM | TGI [6]: > 100 µM | GI50 [7]: > 100 µM | TGI [7]: > 100 µM | GI50 [8]: > 100 µM | TGI [8]: > 100 µM | GI50 [9]: 70.8 µM | TGI [9]: > 100 µM | GI50 [10]: > 100 µM | TGI [10]: > 100 µM | GI50 [11]: > 100 µM | TGI [11]: > 100 µM | GI50 [13]: > 100 µM | TGI [13]: > 100 µM | GI50 [14]: > 100 µM | TGI [14]: > 100 µM | GI50 [15]: > 100 µM | TGI [15]: > 100 µM | GI50 [16]: > 100 µM | TGI [16]: > 100 µM | GI50 [17]: > 100 µM | TGI [17]: > 100 µM | GI50 [18]: > 100 µM | TGI [18]: > 100 µM | GI50 [19]: 39.7 µM | TGI [19]: > 100 µM | GI50 [20]: 31.9 µM | TGI [20]: > 100 µM | GI50 [21]: > 100 µM | TGI [21]: > 100 µM | GI50 [22]: > 100 µM | TGI [22]: > 100 µM | GI50 [50]: 65.8 µM | TGI [50]: > 100 µM | GI50 [25]: 83.7 µM | TGI [25]: > 100 µM | GI50 [27]: 59.8 µM | TGI [27]: > 100 µM | GI50 [28]: > 100 µM | TGI [28]: > 100 µM | GI50 [29]: > 100 µM | TGI [29]: > 100 µM | GI50 [30]: 94.4 µM | TGI [30]: > 100 µM | GI50 [31]: > 100 µM | TGI [31]: > 100 µM | GI50 [32]: > 100 µM | TGI [32]: > 100 µM | GI50 [51]: 70.9 µM | TGI [51]: > 100 µM | GI50 [33]: > 100 µM | TGI [33]: > 100 µM | GI50 [35]: 78.2 µM | TGI [35]: > 100 µM | GI50 [53]: > 100 µM | TGI [53]: > 100 µM | GI50 [36]: > 100 µM | TGI [36]: > 100 µM | GI50 [37]: > 100 µM | TGI [37]: > 100 µM | GI50 [54]: > 100 µM | TGI [54]: > 100 µM | GI50 [38]: > 100 µM | TGI [38]: > 100 µM | GI50 [58]: 29.9 µM | TGI [58]: > 100 µM | GI50 [41]: 78.8 µM | TGI [41]: > 100 µM | GI50 [55]: 20.1 µM | TGI [55]: > 100 µM | GI50 [42]: > 100 µM | TGI [42]: > 100 µM | GI50 [43]: > 100 µM | TGI [43]: > 100 µM | GI50 [45]: 98.4 µM | TGI [45]: > 100 µM | GI50 [46]: > 100 µM | TGI [46]: > 100 µM | GI50 [56]: 47.7 µM | TGI [56]: > 100 µM | GI50 [48]: > 100 µM | TGI [48]: > 100 µM
